Measured values taken from US8816088B2 (Theravance, Inc., priority 2009, dated 2014).
Where a name gives a salt, the structure may show the parent alone.

Tested on: MCh-induced bronchoconstriction
Experiment: Einthoven assay: bronchoprotection against methacholine (MCh)-induced bronchoconstriction
Format: in vivo
Conditions: Rattus norvegicus, inhaled or nasal, 24 h, read-out: Broncho. at 24 h, Bronchoprotective effect present at 24 h, 100 μg by inhalation, 24 h after administration
Description: This assay measures the ability of a test compound to provide bronchoprotection against methacholine (MCh)-induced bronchoconstriction in a rat. Male Sprague-Dawley rats (Harlan, Indianapolis, Ind.), weighing between 200 g and 350 g, were used for all studies. Test compound or vehicle (sterile deionized water) were dosed by inhalation (1H) over a 10 min period in a pie shaped inhalation chamber (R+S Molds, San Carlos, Calif.) using 5 mL of dosing solution. […] Rats were dosed with 100 μg of test compound unless otherwise indicated. At predetermined time points, rats were anesthetized with an intraperitoneal (IP) injection of 120 mg/kg inactin (thiobutabarbital). A supplemental dose (40 mg/kg, IP) was administered if the animal responded to physical stimuli (e.g. toe pinch). The surgical site was shaved and a 1-2 cm midline incision of the ventral aspect of the neck was made. The jugular vein was isolated and cannulated with a saline-filled polyethylene catheter (PE-50) to allow IV infusion of MCh. Trachea was dissected free and cannulated with a 14G needle (#NE-014, Small Parts, Miami Lakes, Fla.). After placement of the tracheal cannula, each rat was ventilated using a respirator (Model 683, Harvard Apparatus, Inc., MA) set at a stroke volume of 1 mL/100 g body weight (but not exceeding 2.5 mL volume) and a rate of 90 strokes per minute. A T-connector was placed along the respirator expiratory tubing to allow for measurement of changes in ventilation pressure (VP) using a Biopac transducer that was connected to a Biopac […]) pre-amplifier. Body temperature was maintained at 37° C. using a heating pad. Changes in VP were recorded using the Acknowledge Data Collection Software (Santa Barbara, Calif.). Baseline values were collected for at least 2.5 min. Rats were then challenged with non-cumulative intravenous (IV) infusions of 40 and 80 μg/kg MCh. MCh was infused intravenously for 2.5 minutes from a syringe pump (sp210iw, World Precision Instruments, Inc., Sarasota, Fla.) at a rate of 2 mL/kg/min, with a 2 minute interval between the two doses of MCh. Changes in ventilation pressure (cm H2O) in treated animals are expressed as % inhibition of MCh response relative to control animals. Other bronchoconstrictors, such as histamine and acetylcholine, can be used in place of MCh in this assay. Additionally, guinea pigs can be used instead of rats. […] Inhibition greater than or equal to 30 percent at 24 h is indicative of a long duration of action.

Compound	inhibition in vivo at 0.1 mg
Cc1cc(CNC[C@H](O)c2ccc(O)c3[nH]c(=O)ccc23)ccc1NC(=O)CCCN(C)C(=O)CCN1CCC(OC(=O)Nc2ccccc2-c2ccccc2)CC1 [Compound I-2, Biphenyl-2-ylcarbamic acid 1-(2-{[3-(4-{[(R)-2-hydroxy-2-(8-hydroxy-2-oxo-1,2-dihydroquinolin-5-yl)ethylamino]methyl}-2-methylphenylcarbamoyl)-propyl]methylcarbamoyl}ethyl)piperidin-4-yl ester ditrifluoroacetic acid salt]	< 30%
C[C@H](Cc1cccc(CC(=O)NCCCN(C)C(=O)CCN2CCC(OC(=O)Nc3ccccc3-c3ccccc3)CC2)c1)NC[C@H](O)c1ccc(O)c2[nH]c(=O)ccc12 [Compound I-12, Biphenyl-2-ylcarbamic acid 1-[2-({3-[2-(3-{(R)-2-[(R)-2-hydroxy-2-(8-hydroxy-2-oxo-1,2-dihydroquinolin-5-yl)ethylamino]propyl}phenyl)acetylamino]propyl}-methylcarbamoyl)ethyl]piperidin-4-yl ester ditrifluoroacetic acid salt]	< 30%
Cc1cc(CNC[C@H](O)c2ccc(O)c3[nH]c(=O)ccc23)ccc1NC(=O)c1cccc(N(C)C(=O)CCN2CCC(OC(=O)Nc3ccccc3-c3ccccc3)CC2)c1 [Compound I-27, Biphenyl-2-ylcarbamic acid 1-(2-{[3-(4-{[(R)-2-hydroxy-2-(8-hydroxy-2-oxo-1,2-dihydroquinolin-5-yl)-ethylamino]methyl}-2-methylphenylcarbamoyl)phenyl]-methylcarbamoyl}ethyl)piperidin-4-yl ester ditrifluoroacetic acid salt]	< 30%
Cc1cc(CNC[C@H](O)c2ccc(O)c3[nH]c(=O)ccc23)ccc1NC(=O)c1ccc(C)c(N(C)C(=O)CCN2CCC(OC(=O)Nc3ccccc3-c3ccccc3)CC2)c1 [Compound I-28, ditrifluoroacetic acid salt]	< 30%
COc1cc(CNC[C@H](O)c2ccc(O)c3[nH]c(=O)ccc23)ccc1NC(=O)c1cccc(N(C)C(=O)CCN2CCC(OC(=O)Nc3ccccc3-c3ccccc3)CC2)c1 [Compound I-29, ditrifluoroacetic acid salt]	< 30%
Cc1cc(NC(=O)c2cccc(N(C)C(=O)CCN3CCC(OC(=O)Nc4ccccc4-c4ccccc4)CC3)c2)c(C)cc1CNC[C@H](O)c1ccc(O)c2[nH]c(=O)ccc12 [Compound I-30, ditrifluoroacetic acid salt]	< 30%
CN(C(=O)CCN1CCC(OC(=O)Nc2ccccc2-c2ccccc2)CC1)c1cccc(C(=O)Nc2cccc(CCNC[C@H](O)c3ccc(O)c4[nH]c(=O)ccc34)c2)c1 [Compound I-32, ditrifluoroacetic acid salt]	< 30%
Cc1ccc(C(=O)Nc2cccc(CCNC[C@H](O)c3ccc(O)c4[nH]c(=O)ccc34)c2)cc1N(C)C(=O)CCN1CCC(OC(=O)Nc2ccccc2-c2ccccc2)CC1 [Compound I-33, Biphenyl-2-ylcarbamic acid 1-(2-{[5-(3-{2-[(R)-2-hydroxy-2-(8-hydroxy-2-oxo-1,2-dihydroquinolin-5-yl)-ethylamino]ethyl}phenylcarbamoyl)-2-methylphenyl]-methylcarbamoyl}ethyl)piperidin-4-yl ester ditrifluoroacetic acid salt]	< 30%
CN(C(=O)CCN1CCC(OC(=O)Nc2ccccc2-c2ccccc2)CC1)c1cccc(C(=O)Nc2ccc(CCNC[C@H](O)c3ccc(O)c4[nH]c(=O)ccc34)cc2)c1 [Compound I-34, Ditrifluoroacetate]	> 30%
Cc1ccc(C(=O)Nc2cccc(CC(C)NC[C@H](O)c3ccc(O)c4[nH]c(=O)ccc34)c2)cc1N(C)C(=O)CCN1CCC(OC(=O)Nc2ccccc2-c2ccccc2)CC1 (stereo partly drawn) [Compound I-37, Biphenyl-2-ylcarbamic acid 1-(2-{[5-(3-{2-[(R)-2-hydroxy-2-(8-hydroxy-2-oxo-1,2-dihydroquinolin-5-yl)-ethylamino]propyl}phenylcarbamoyl)-2-methylphenyl]-methylcarbamoyl}ethyl)piperidin-4-yl ester ditrifluoroacetic acid salt]	< 30%
C[C@H](Cc1cccc(NC(=O)c2cccc(N(C)C(=O)CCN3CCC(OC(=O)Nc4ccccc4-c4ccccc4)CC3)c2)c1)NC[C@H](O)c1ccc(O)c2[nH]c(=O)ccc12 [Compound I-38, Biphenyl-2-ylcarbamic acid 1-(2-{[3-(3-{(R)-2-[(R)-2-hydroxy-2-(8-hydroxy-2-oxo-1,2-dihydroquinolin-5-yl)-ethylamino]propyl}phenylcarbamoyl)phenyl]methyl-carbamoyl}ethyl)piperidin-4-yl ester ditrifluoroacetic acid salt]	< 30%
C[C@@H](Cc1cccc(NC(=O)c2cccc(N(C)C(=O)CCN3CCC(OC(=O)Nc4ccccc4-c4ccccc4)CC3)c2)c1)NC[C@H](O)c1ccc(O)c2[nH]c(=O)ccc12 [Compound I-39, ditrifluoroacetic acid salt]	< 30%
CC(Cc1cccc(CNC(=O)c2cccc(N(C)C(=O)CCN3CCC(OC(=O)Nc4ccccc4-c4ccccc4)CC3)c2)c1)NC[C@H](O)c1ccc(O)c2[nH]c(=O)ccc12 (stereo partly shown) [Compound I-44, ditrifluoroacetic acid salt]	< 30%
Cc1ccc(C(=O)NCc2cccc(CC(C)NC[C@H](O)c3ccc(O)c4[nH]c(=O)ccc34)c2)cc1N(C)C(=O)CCN1CCC(OC(=O)Nc2ccccc2-c2ccccc2)CC1 (stereo partly drawn) [Compound I-45, Biphenyl-2-ylcarbamic acid 1-(2-{[5-(3-{2-[(R)-2-hydroxy-2-(8-hydroxy-2-oxo-1,2-dihydroquinolin-5-yl)-ethylamino]propyl}benzylcarbamoyl)-2-methylphenyl]-methylcarbamoyl}ethyl)piperidin-4-yl ester ditrifluoroacetic acid salt]	< 30%
CC(Cc1cccc(CC(=O)Nc2cccc(N(C)C(=O)CCN3CCC(OC(=O)Nc4ccccc4-c4ccccc4)CC3)c2)c1)NC[C@H](O)c1ccc(O)c2[nH]c(=O)ccc12 (stereo partly shown) [Compound I-52, ditrifluoroacetic acid salt]	< 30%
CC(Cc1ccc(CC(=O)Nc2cccc(N(C)C(=O)CCN3CCC(OC(=O)Nc4ccccc4-c4ccccc4)CC3)c2)cc1)NC[C@H](O)c1ccc(O)c2[nH]c(=O)ccc12 (stereo partly drawn) [Compound I-53, Biphenyl-2-ylcarbamic acid 1-[2-({3-[2-(4-{2-[(R)-2-hydroxy-2-(8-hydroxy-2-oxo-1,2-dihydroquinolin-5-yl)-ethylamino]propyl}phenyl)acetylamino]phenyl}methyl-carbamoyl)ethyl]piperidin-4-yl ester ditrifluoroacetic acid salt]	< 30%
C[C@@H](Cc1cccc(CCNC(=O)c2ccc(N(C)C(=O)CCN3CCC(OC(=O)Nc4ccccc4-c4ccccc4)CC3)cc2)c1)NC[C@H](O)c1ccc(O)c2[nH]c(=O)ccc12 [Compound I-56, Biphenyl-2-ylcarbamic acid 1-[2-({4-[2-(3-{(S)-2-[(R)-2-hydroxy-2-(8-hydroxy-2-oxo-1,2-dihydroquinolin-5-yl)-ethylamino]propyl}phenyl)ethylcarbamoyl]phenyl}-methylcarbamoyl)ethyl]piperidin-4-yl ester ditrifluoroacetic acid salt]	< 30%

Same assay, conditions: inhaled or nasal; rat, 100 μg by inhalation, 24 h after administration; read-out: Broncho. at 24 h; Bronchoprotective effect present at 24 h

Compound	inhibition in vivo at 0.1 mg
Cc1ccc(C(=O)Nc2ccc(CC(C)NC[C@H](O)c3ccc(O)c4[nH]c(=O)ccc34)cc2)cc1N(C)C(=O)CCN1CCC(OC(=O)Nc2ccccc2-c2ccccc2)CC1 (stereo partly drawn) [Compound I-41, Biphenyl-2-ylcarbamic acid 1-(2-{[5-(4-{2-[(R)-2-hydroxy-2-(8-hydroxy-2-oxo-1,2-dihydroquinolin-5-yl)-ethylamino]propyl}phenylcarbamoyl)-2-methylphenyl]-methylcarbamoyl}ethyl)piperidin-4-yl ester]	< 30%

Same assay, conditions: rat, 100 μg by inhalation, 24 h after administration

Compound	Broncho. at 24 h; Bronchoprotective effect present at 24 h
Cc1ccc(C(=O)Nc2ccc(CCNC[C@H](O)c3ccc(O)c4[nH]c(=O)ccc34)cc2)cc1N(C)C(=O)CCN1CCC(OC(=O)Nc2ccccc2-c2ccccc2)CC1 [Compound I-35]	Yes (Bronchoprotective effect present at 24 h, e.g., ≧30% inhibition of the MCh response at 24 h in the rat Einthoven assay (100 μg))
